Measured values as given in ChEMBL document CHEMBL2434896, “Carbonic anhydrase inhibitors. Synthesis of heterocyclic 4-substituted pyridine-3-sulfonamide derivatives and their inhibition of the human cytosolic isozymes I and II and transmembrane tumor-associated isozymes IX and XII” (Eur J Med Chem, 2013).
pKi: −log10 of the molar value. The source made the active and inactive calls. No cut-off for these calls is given here.

How the values were obtained:
Malme-3M = test: Growth inhibition of human MALME-3M cells at 10 uM after 48 hrs by sulforhodamine B assay; type: functional; conditions: read-out: GI
LOX IMVI = test: Growth inhibition of human LOXIMVI cells at 10 uM after 48 hrs by sulforhodamine B assay; type: functional
SNB-75 = test: Growth inhibition of human SNB75 cells at 10 uM after 48 hrs by sulforhodamine B assay; type: functional; conditions: SNB-75, 48 h, read-out: GI
SF-539 = test: Growth inhibition of human SF539 cells at 10 uM after 48 hrs by sulforhodamine B assay; type: functional; conditions: SF-539, 48 h, read-out: GI
SF-268 = test: Growth inhibition of human SF268 cells at 10 uM after 48 hrs by sulforhodamine B assay; type: functional
SW-620 = test: Growth inhibition of human SW620 cells at 10 uM after 48 hrs by sulforhodamine B assay; type: functional
HT-29 = test: Growth inhibition of human HT-29 cells at 10 uM after 48 hrs by sulforhodamine B assay; type: functional; conditions: HT-29, 48 h, read-out: GI
HCT-15 = test: Growth inhibition of human HCT15 cells at 10 uM after 48 hrs by sulforhodamine B assay; type: functional; conditions: HCT-15, 48 h, read-out: GI
HCT-116 = test: Growth inhibition of human HCT116 cells at 10 uM after 48 hrs by sulforhodamine B assay; type: functional; conditions: HCT-116, 48 h, read-out: GI
COLO 205 = test: Growth inhibition of human COLO205 cells at 10 uM after 48 hrs by sulforhodamine B assay; type: functional
NCI-H522 = test: Growth inhibition of human NCI-H522 cells at 10 uM after 48 hrs by sulforhodamine B assay; type: functional; conditions: NCI-H522, 48 h, read-out: GI
NCI-H460 = test: Growth inhibition of human NCI-H460 cells at 10 uM after 48 hrs by sulforhodamine B assay; type: functional
NCI-H322M = test: Growth inhibition of human NCI-H322M cells at 10 uM after 48 hrs by sulforhodamine B assay; type: functional
NCI-H23 = test: Growth inhibition of human NCI-H23 cells at 10 uM after 48 hrs by sulforhodamine B assay; type: functional
HOP-62 = test: Growth inhibition of human HOP62 cells at 10 uM after 48 hrs by sulforhodamine B assay; type: functional
A549 = test: Growth inhibition of human A549/ATCC cells at 10 uM after 48 hrs by sulforhodamine B assay; type: functional; conditions: A549, 48 h, read-out: GI
SR = test: Growth inhibition of human SR cells at 10 uM after 48 hrs by sulforhodamine B assay; type: functional; conditions: read-out: GI
RPMI-8226 = test: Growth inhibition of human RPMI8226 cells at 10 uM after 48 hrs by sulforhodamine B assay; type: functional; conditions: RPMI-8226, 48 h, read-out: GI
MOLT-4 = test: Growth inhibition of human MOLT4 cells at 10 uM after 48 hrs by sulforhodamine B assay; type: functional; conditions: MOLT-4, 48 h, read-out: GI
HL-60(TB) = test: Growth inhibition of human HL-60(TB) cells at 10 uM after 48 hrs by sulforhodamine B assay; type: functional
CCRF-CEM = test: Growth inhibition of human CCRF-CEM cells at 10 uM after 48 hrs by sulforhodamine B assay; type: functional
Carbonic anhydrase 9 = Carbonic anhydrase 9 (Homo sapiens, UniProt Q16790); test: Inhibition of human carbonic anhydrase 9 after 15 mins by stopped flow CO2 hydration assay
MDA-MB-468 = test: Growth inhibition of human MDA-MB-468 cells at 10 uM after 48 hrs by sulforhodamine B assay; type: functional
Hs-578T = test: Growth inhibition of human Hs 578T cells at 10 uM after 48 hrs by sulforhodamine B assay; type: functional
MDA-MB-231 = test: Growth inhibition of human MDA-MB-231 cells at 10 uM after 48 hrs by sulforhodamine B assay; type: functional
MCF7 = test: Growth inhibition of human MCF7 cells at 10 uM after 48 hrs by sulforhodamine B assay; type: functional
DU-145 = test: Growth inhibition of human DU145 cells at 10 uM after 48 hrs by sulforhodamine B assay; type: functional
PC-3 = test: Growth inhibition of human PC3 cells at 10 uM after 48 hrs by sulforhodamine B assay; type: functional; conditions: PC-3, 48 h, read-out: GI
UO-31 = test: Growth inhibition of human UO31 cells at 10 uM after 48 hrs by sulforhodamine B assay; type: functional; conditions: UO-31, 48 h, read-out: GI
TK-10 = test: Growth inhibition of human TK10 cells at 10 uM after 48 hrs by sulforhodamine B assay; type: functional
SN12C = test: Growth inhibition of human SN12C cells at 10 uM after 48 hrs by sulforhodamine B assay; type: functional
RXF 393 = test: Growth inhibition of human RXF393 cells at 10 uM after 48 hrs by sulforhodamine B assay; type: functional
CAKI-1 = test: Growth inhibition of human CAKI-1 cells at 10 uM after 48 hrs by sulforhodamine B assay; type: functional; conditions: CAKI-1, 48 h, read-out: GI
ACHN = test: Growth inhibition of human ACHN cells at 10 uM after 48 hrs by sulforhodamine B assay; type: functional
A498 = test: Growth inhibition of human A498 cells at 10 uM after 48 hrs by sulforhodamine B assay; type: functional
786-0 = test: Growth inhibition of human 786-0 cells at 10 uM after 48 hrs by sulforhodamine B assay; type: functional
OVCAR-8 = test: Growth inhibition of human OVCAR8 cells at 10 uM after 48 hrs by sulforhodamine B assay; type: functional; conditions: OVCAR-8, 48 h, read-out: GI
OVCAR-5 = test: Growth inhibition of human OVCAR5 cells at 10 uM after 48 hrs by sulforhodamine B assay; type: functional
OVCAR-3 = test: Growth inhibition of human OVCAR3 cells at 10 uM after 48 hrs by sulforhodamine B assay; type: functional
IGROV-1 = test: Growth inhibition of human IGROV1 cells at 10 uM after 48 hrs by sulforhodamine B assay; type: functional
UACC-62 = test: Growth inhibition of human UACC62 cells at 10 uM after 48 hrs by sulforhodamine B assay; type: functional
UACC-257 = test: Growth inhibition of human UACC257 cells at 10 uM after 48 hrs by sulforhodamine B assay; type: functional
SK-MEL-28 = test: Growth inhibition of human SK-MEL-28 cells at 10 uM after 48 hrs by sulforhodamine B assay; type: functional, cell-based
SK-MEL-2 = test: Growth inhibition of human SK-MEL-2 cells at 10 uM after 48 hrs by sulforhodamine B assay; type: functional
M14 = test: Growth inhibition of human M14 cells at 10 uM after 48 hrs by sulforhodamine B assay; type: functional
HCC 2998 = test: Growth inhibition of human HCC2998 cells at 10 uM after 48 hrs by sulforhodamine B assay; type: functional

SMILES: CCc1cc(CC)n(-c2ccncc2S(N)(=O)=O)n1
- inhibition of growth at 10 µM (Malme-3M): 9%
- growth inhibition (GI) (LOX IMVI): inactive
- inhibition of growth at 10 µM (SNB-75): 3%
- inhibition of growth at 10 µM (SF-539): 4%
- growth inhibition (GI) (SF-268): inactive
- growth inhibition (GI) (SW-620): inactive
- inhibition of growth at 10 µM (HT-29): 1%
- inhibition of growth at 10 µM (HCT-15): 4%
- inhibition of growth at 10 µM (HCT-116): 1%
- inhibition of growth at 10 µM (COLO 205; COLO 205, 48 h, read-out: GI): 13%
- inhibition of growth at 10 µM (NCI-H522): 7%
- growth inhibition (GI) (NCI-H460): inactive
- growth inhibition (GI) (NCI-H322M): inactive
- growth inhibition (GI) (NCI-H23): inactive
- growth inhibition (GI) (HOP-62): inactive
- inhibition of growth at 10 µM (A549): 1%
- inhibition of growth at 10 µM (SR): 5%
- inhibition of growth at 10 µM (RPMI-8226): 9%
- inhibition of growth at 10 µM (MOLT-4): 2%
- growth inhibition (GI) (HL-60(TB)): inactive
- inhibition of growth at 10 µM (CCRF-CEM; read-out: GI): 4%
- pKi (Carbonic anhydrase 9): 7.50
- growth inhibition (GI) (MDA-MB-468): inactive
- growth inhibition (GI) (Hs-578T): inactive
- growth inhibition (GI) (MDA-MB-231): inactive
- inhibition of growth at 10 µM (MCF7; MCF7, 48 h, read-out: GI): 10%
- growth inhibition (GI) (DU-145): inactive
- inhibition of growth at 10 µM (PC-3): 1%
- inhibition of growth at 10 µM (UO-31): 8%
- growth inhibition (GI) (TK-10): inactive
- growth inhibition (GI) (SN12C): inactive
- growth inhibition (GI) (RXF 393): inactive
- inhibition of growth at 10 µM (CAKI-1): 1%
- growth inhibition (GI) (ACHN): inactive
- growth inhibition (GI) (A498): inactive
- inhibition of growth at 10 µM (786-0; 786-0, 48 h, read-out: GI): 2%
- inhibition of growth at 10 µM (OVCAR-8): 9%
- growth inhibition (GI) (OVCAR-5): inactive
- inhibition of growth at 10 µM (OVCAR-3; OVCAR-3, 48 h, read-out: GI): 1%
- growth inhibition (GI) (IGROV-1): inactive
- growth inhibition (GI) (UACC-62): inactive
- growth inhibition (GI) (UACC-257): inactive
- growth inhibition (GI) (SK-MEL-28): inactive
- growth inhibition (GI) (SK-MEL-2): inactive
- growth inhibition (GI) (M14): inactive

SMILES: Cc1ccc(C)c(N2CCN(c3ccncc3S(N)(=O)=O)CC2)c1
- inhibition of growth at 10 µM (Malme-3M): 15%
- growth inhibition (GI) (LOX IMVI): inactive
- inhibition of growth at 10 µM (SNB-75): 9%
- inhibition of growth at 10 µM (SF-539): 1%
- growth inhibition (GI) (SF-268): inactive
- inhibition of growth at 10 µM (SW-620; SW-620, 48 h, read-out: GI): 3%
- inhibition of growth at 10 µM (HT-29): 9%
- inhibition of growth at 10 µM (HCT-15): 12%
- inhibition of growth at 10 µM (HCT-116): 9%
- growth inhibition (GI) (HCC 2998): inactive
- growth inhibition (GI) (COLO 205): inactive
- inhibition of growth at 10 µM (NCI-H522): 15%
- growth inhibition (GI) (NCI-H460): inactive
- inhibition of growth at 10 µM (NCI-H322M; read-out: GI): 7%
- growth inhibition (GI) (NCI-H23): inactive
- growth inhibition (GI) (HOP-62): inactive
- inhibition of growth at 10 µM (A549): 2%
- inhibition of growth at 10 µM (SR): 10%
- inhibition of growth at 10 µM (RPMI-8226): 8%
- inhibition of growth at 10 µM (MOLT-4): 11%
- inhibition of growth at 10 µM (HL-60(TB); HL-60, 48 h, read-out: GI): 6%
- growth inhibition (GI) (CCRF-CEM): inactive
- pKi (Carbonic anhydrase 9): 6.26
- growth inhibition (GI) (Hs-578T): inactive
- growth inhibition (GI) (MDA-MB-231): inactive
- growth inhibition (GI) (MCF7): inactive
- growth inhibition (GI) (DU-145): inactive
- inhibition of growth at 10 µM (PC-3): 4%
- inhibition of growth at 10 µM (UO-31): 15%
- inhibition of growth at 10 µM (TK-10; TK-10, 48 h, read-out: GI): 7%
- growth inhibition (GI) (SN12C): inactive
- growth inhibition (GI) (RXF 393): inactive
- inhibition of growth at 10 µM (CAKI-1): 9%
- inhibition of growth at 10 µM (ACHN; read-out: GI): 6%
- inhibition of growth at 10 µM (A498; A498, 48 h, read-out: GI): 16%
- growth inhibition (GI) (786-0): inactive
- inhibition of growth at 10 µM (OVCAR-8): 4%
- inhibition of growth at 10 µM (OVCAR-5; OVCAR-5, 48 h, read-out: GI): 3%
- growth inhibition (GI) (OVCAR-3): inactive
- inhibition of growth at 10 µM (IGROV-1; IGROV-1, 48 h, read-out: GI): 6%
- inhibition of growth at 10 µM (UACC-62; UACC-62, 48 h, read-out: GI): 7%
- growth inhibition (GI) (UACC-257): inactive
- growth inhibition (GI) (SK-MEL-28): inactive
- growth inhibition (GI) (SK-MEL-2): inactive
- inhibition of growth at 10 µM (M14; M14, 48 h, read-out: GI): 1%
